From article PMC12603985, “Dissimilar Reactions and Enzymes for Psilocybin Biosynthesis in Inocybe and Psilocybe Mushrooms” (Angewandte Chemie (International Ed. in English), 2025)

Key:
Type in all cases: biochemical, Inocybe corydalina
IpsM2 = system: T1, IpsM2; experiment: Michaelis-Menten kinetics of methyl transfer; conditions: methyl donor SAM; product assays in TRIS-HCl pH 7.5
T1 construct: heterologously produced and purified

IpsM1 = system: T2, IpsM1; experiment: Michaelis-Menten kinetics of methyl transfer; conditions: methyl donor SAM; product assays in TRIS-HCl pH 7.5
T2 construct: heterologously produced and purified

IpsK = system: T3, IpsK; experiment: Michaelis-Menten kinetics of phosphotransfer; conditions: phosphate donor ATP; product assays in TRIS-HCl pH 7.5
T3 construct: N-terminally hexahistidine-tagged; recombinant, purified

IpsD = system: T4, IpsD; experiment: Michaelis-Menten kinetics of decarboxylation; conditions: PLP-dependent
T4 construct: obligate dimer predicted by the model; PLP lysine K300

Row | SMILES | Km (IpsM2) | Km (IpsM1) | Km (IpsK) | Km (IpsD)
1 | NCCc1c[nH]c2cccc(O)c12 [compound 5, 4-hydroxytryptamine] | 64.5 µM | 101 µM |  | 
2 | CN(C)CCc1c[nH]c2cccc(O)c12 [compound 4, psilocin] |  |  | 20.5 µM | 
3 | CNCCc1c[nH]c2cccc(O)c12 [compound 10, 10] | 433 µM | 138 µM | 337 µM | 
4 | N[C@@H](Cc1c[nH]c2cccc(O)c12)C(=O)O [compound 7, 4-hydroxy-L-tryptophan] |  |  |  | 66 µM
